Data on eleven compounds can be found in US4715994A, “Novel antibacterial agents and potentiators of carbapenem antibiotics” (Merck & Co., Inc., priority 1986, dated 1987).

SMILES strings stand for the structures.

The target of the first assay is T1, dehydropeptidase-I (renal dipeptidase, EC 3.4.13.11) (Sus scrofa, UniProt P22412).
T1 construct: isolated from hog kidneys; from tissue; host or cells: hog kidney, solubilized and lyophilized enzyme preparation
T1 sequence (P22412 17-409): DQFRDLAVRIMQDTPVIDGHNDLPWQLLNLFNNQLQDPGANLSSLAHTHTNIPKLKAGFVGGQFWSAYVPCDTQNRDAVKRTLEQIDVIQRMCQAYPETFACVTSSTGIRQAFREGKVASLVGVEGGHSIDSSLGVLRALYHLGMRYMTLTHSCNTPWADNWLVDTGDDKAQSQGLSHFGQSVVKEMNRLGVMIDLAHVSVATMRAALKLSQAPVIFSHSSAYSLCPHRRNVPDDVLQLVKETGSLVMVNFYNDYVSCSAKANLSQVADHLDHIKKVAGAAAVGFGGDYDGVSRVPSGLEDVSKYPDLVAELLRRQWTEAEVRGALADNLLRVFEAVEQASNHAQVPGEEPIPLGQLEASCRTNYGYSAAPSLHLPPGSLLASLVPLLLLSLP
The assay is described as follows: Renal dehydropeptidase I inhibition (hydrolysis of glycyldehydrophenylalanine).
Settings: not given
Type of assay: biochemical, hog. How it is done:
This measured the ability of compounds to inhibit hydrolysis of glycyldehydrophenylalanine (GDP) by a solubilized preparation of […] isolated from hog kidneys. The procedure is as follows: to a 1 ml system containing 50 mM "MOPS" (3-(N-morpholino)propanesulfonic acid) buffer, pH 7.1, is added 5 μg of lyophilized enzyme, and the test compound at a final concentration of 0.1 mM. After a five minute incubation at 37° C., GDP is added to a final concentration of 0.05 mM. […] Inhibition of the enzyme is gauged by comparison to a standard run containing no inhibitor and is expressed as the inhibitor binding constant, Ki.
`CC(CP(=O)(O)[C@@H](C)N)C(=O)O` (stereo partly drawn) [D, R2 methyl, R3 H, 1-D-Aminoethyl-(2-carboxy-1-propyl)phosphinic acid] showed a Ki of 140 nM.

Consider `C=C(CP(=O)(O)[C@@H](C)N)C(=O)O` [D, R5 H], for which the Ki stood at 230 nM.

`CC(CP(=O)(O)C(C)N)C(=O)O` (stereo not drawn) [DL, R2 methyl, R3 H, 1-Aminoethyl-(2-carboxy-1-propyl)phosphinic acid] displayed an inhibitory constant (Ki) of 10 nM.

Take `CC(CP(=O)(O)[C@H](C)N)C(=O)O` (stereo partly drawn) [L, R2 methyl, 1-L-Aminoethyl-(2-carboxy-1-propyl)phosphinic acid]: the Ki was 10 nM.

`C[C@H](N)P(=O)(O)CC(CCCc1ccccc1)C(=O)O` (some centres unmarked) [L, R2 phenylpropyl] came in with a Ki of 27 nM.

Regarding `C=C(CP(=O)(O)[C@H](C)N)C(=O)O` [L, R5 H], the Ki turned out to be 27 nM.

Staying with this assay, now noted: read-out: RENAL DEHYDROPEPTIDASE I INHIBITION Ki.
In the case of `CCCCCC=C(CP(=O)(O)C(C)N)C(=O)O` (racemic) [DL, R5 n-pentyl, (E, Z isomers), 1-Aminoethyl-(2-carboxy-oct-2-enyl)phosphinic acid (E/Z mixture)], the Ki was 5.8 nM.

As for `C[C@@H](N)P(=O)(O)CC(CCCc1ccccc1)C(=O)O` (some centres unmarked) [D, R2 phenylpropyl], the Ki was 1000 nM.

Regarding `CC(N)P(=O)(O)CC(CCCc1ccncc1)C(=O)O` (stereo not drawn) [DL, R2 4-pyridylpropyl, 1-Aminoethyl-[2-carboxy-5-(4-pyridyl)-1-n-pentyl]-phosphinic acid], the inhibitory constant (Ki) amounted to 12 nM.

Regarding `CC(N)P(=O)(O)C/C(=C/CCc1ccccc1)C(=O)O` (stereo not drawn) [DL, R5 phenethyl, E], the inhibition constant Ki turned out to be 7 nM.

As to `CC(N)P(=O)(O)C/C(=C\CCc1ccccc1)C(=O)O` (stereo not drawn) [DL, R5 phenethyl, Z, 1-Aminoethyl-(2-carboxy-5-phenyloct-2-enyl)phosphinic acid (E and Z isomers)], the Ki is 16 nM.
